Measurements taken from patent US20260297080A1, “BICYCLIC COMPOUNDS AS CDK INHIBITORS” (BeOne Medicines I GmbH, priority 2022, published 2026).

Columns and labels:
CDK1/Cyclin B1 = CDK1/Cyclin B1 (Homo sapiens, UniProt P06493); assay: CDK1/Cyclin B1 Biochemical Assay (TR-FRET), 0.015 mM ATP; conditions: 0.15 μM Rb (Ser780)-biotin substrate, pH7.0, 60 min preincubation, 120 min reaction, room temperature
Procedure, shortened: (§1)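 TR-FRET assay with 0.15 μM Rb (Ser780)-biotin substrate and 0-10 μM compound in 50 mM HEPES pH7.0, 50 mM MgCl2, 1 mM DTT. ATP was 0.060 mM for CDK2/Cyclin E1 and 0.015 mM for CDK1/Cyclin B1. Kinase was preincubated with compound 60 min, reacted 120 min at room temperature, and IC50 was fitted (four-parameter) from the 665/620 nm ratio.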

CDK2/Cyclin E1 = CDK2/Cyclin E1 (Homo sapiens, UniProt P24941); assay: CDK2/Cyclin E1 Biochemical Assay (TR-FRET), 0.060 mM ATP; conditions: 0.15 μM Rb (Ser780)-biotin substrate, pH7.0, 60 min preincubation, 120 min reaction, room temperature
Procedure, shortened: as §1

Sequence of CDK1/Cyclin B1 (P06493 whole entry): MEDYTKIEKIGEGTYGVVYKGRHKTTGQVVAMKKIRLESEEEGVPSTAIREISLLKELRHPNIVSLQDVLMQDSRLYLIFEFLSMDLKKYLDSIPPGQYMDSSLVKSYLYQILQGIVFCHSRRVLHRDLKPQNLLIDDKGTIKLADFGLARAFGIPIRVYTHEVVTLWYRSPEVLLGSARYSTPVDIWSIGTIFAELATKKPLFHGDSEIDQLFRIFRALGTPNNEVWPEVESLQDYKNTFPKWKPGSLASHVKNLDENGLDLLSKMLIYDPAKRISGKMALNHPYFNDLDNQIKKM
Sequence of CDK1/Cyclin B1 (P14635 whole entry partner): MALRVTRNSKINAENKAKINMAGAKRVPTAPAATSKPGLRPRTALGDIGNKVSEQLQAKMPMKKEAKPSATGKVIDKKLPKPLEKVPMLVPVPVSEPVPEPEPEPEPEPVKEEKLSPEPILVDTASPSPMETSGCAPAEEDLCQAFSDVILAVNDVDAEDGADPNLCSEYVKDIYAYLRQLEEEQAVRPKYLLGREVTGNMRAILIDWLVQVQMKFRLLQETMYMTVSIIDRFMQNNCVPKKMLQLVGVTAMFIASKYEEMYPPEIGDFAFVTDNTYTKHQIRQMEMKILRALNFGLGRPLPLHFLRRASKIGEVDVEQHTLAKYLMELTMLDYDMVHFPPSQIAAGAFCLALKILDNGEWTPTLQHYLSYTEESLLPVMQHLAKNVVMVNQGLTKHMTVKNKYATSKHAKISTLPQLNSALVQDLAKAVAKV

| IC50 (CDK1/Cyclin B1) | IC50 (CDK2/Cyclin E1) | SMILES |
| --- | --- | --- |
| 75 nM | 4 nM | [2H]C([2H])([2H])N1c2ccc(Nc3cc([C@@H]4CC[C@H](OC(=O)NCCC)C4)[nH]n3)c(F)c2CS1(=O)=O (single isomer, unassigned) [Example 268b, cis-3-(3-((4-fluoro-1-(methyl-d3)-2,2-dioxido-1,3-dihydrobenzo[c]isothiazol-5-yl)amino)-1H-pyrazol-5-yl)cyclopentyl propylcarbamate] |
| 35 nM | 2.6 nM | CC(C)NC(=O)O[C@H]1CC[C@@H](c2cc(Nc3ccc4c(c3)CS(=O)(=O)N4C)n[nH]2)C1 (single isomer, unassigned) [Example 220b] |
| 152 nM | 5.5 nM | CC(C)NC(=O)O[C@H]1CC[C@@H](c2cc(Nc3cc(F)c4c(c3)CS(=O)(=O)N4C3CC3)n[nH]2)C1 (relative stereo) [Example 288, cis-3-(3-((1-cyclopropyl-7-fluoro-2,2-dioxido-1,3-dihydrobenzo[c]isothiazol-5-yl)amino)-1H-pyrazol-5-yl)cyclopentyl isopropylcarbamate] |
| 37 nM | 5.4 nM | CC(C)NC(=O)O[C@H]1CC[C@@H](c2cc(Nc3ccc4c(c3)CS(=O)(=O)N4C3COC3)n[nH]2)C1 (relative stereo) [Example 209, cis-3-(3-((1-(oxetan-3-yl)-2,2-dioxido-1,3-dihydrobenzo[c]isothiazol-5-yl)amino)-1H-pyrazol-5-yl)cyclopentyl isopropylcarbamate] |
| 118 nM | 5.7 nM | CC1(NC(=O)O[C@H]2CC[C@@H](c3cc(Nc4ccc5c(c4F)CS(=O)(=O)N5)n[nH]3)C2)COC1 (relative stereo) [Example 374, cis-3-(3-((4-fluoro-2,2-dioxido-1,3-dihydrobenzo[c]isothiazol-5-yl)amino)-1H-pyrazol-5-yl)cyclopentyl(3-methyloxetan-3-yl)carbamate] |
| 91 nM | 5.1 nM | CC(C)NC(=O)O[C@H]1CC[C@@H](c2cc(Nc3ccc4c(c3F)CS(=O)(=O)N4CC(F)(F)F)n[nH]2)C1 (single isomer, unassigned) [Example 263b, cis-3-(3-((4-fluoro-2,2-dioxido-1-(2,2,2-trifluoroethyl)-1,3-dihydrobenzo[c]isothiazol-5-yl)amino)-1H-pyrazol-5-yl)cyclopentyl isopropylcarbamate] |
| 4420 nM | 230 nM | [2H]C([2H])([2H])N1Cc2cc(Nc3cc([C@@H]4CC[C@H](OC(=O)NC(C)C)C4)[nH]n3)c(F)cc2S1(=O)=O (relative stereo) [Example 46, cis-3-(3-((6-fluoro-2-(methyl-d3)-1,1-dioxido-2,3-dihydrobenzo[d]isothiazol-5-yl)amino)-1H-pyrazol-5-yl)cyclopentyl isopropylcarbamate] |
| 404 nM | 12 nM | CC(C)NC(=O)O[C@H]1CC[C@@H](c2cc(Nc3cc4c(cc3F)N(C3COC3)S(=O)(=O)C4)n[nH]2)C1 (relative stereo) [Example 301, cis-3-(3-((6-fluoro-1-(oxetan-3-yl)-2,2-dioxido-1,3-dihydrobenzo[c]isothiazol-5-yl)amino)-1H-pyrazol-5-yl)cyclopentyl isopropylcarbamate] |
| 424 nM | 21 nM | CC(C)NC(=O)O[C@H]1CC[C@@H](c2cc(Nc3cnc4c(c3)CN(C)S4(=O)=O)n[nH]2)C1 (relative stereo) [Example 32, cis-3-(3-((2-methyl-1,1-dioxido-2,3-dihydroisothiazolo[5,4-b]pyridin-5-yl)amino)-1H-pyrazol-5-yl)cyclopentyl isopropylcarbamate] |
| 529 nM | 12 nM | CC(C)NC(=O)O[C@H]1CC[C@@H](c2cc(Nc3ccc4c(c3F)CN(C[C@H](N)C(C)(C)C)S4(=O)=O)n[nH]2)C1 (relative stereo) [Example 99, cis-3-(3-((2-((R)-2-amino-3,3-dimethylbutyl)-4-fluoro-1,1-dioxido-2,3-dihydrobenzo[d]isothiazol-5-yl)amino)-1H-pyrazol-5-yl)cyclopentyl isopropylcarbamate] |
| 7.8 nM | 0.9 nM | CN1c2ccc(Nc3cc([C@@H]4CC[C@H](OC(=O)NC(C)(C)C)C4)[nH]n3)cc2CS1(=O)=O [Example 391b] |
| 22 nM | 1.1 nM | CC1(NC(=O)O[C@H]2CC[C@@H](c3cc(Nc4ccc5c(c4F)CS(=O)(=O)N5CC(F)(F)F)n[nH]3)C2)CC1 (single isomer, unassigned) [Example 264b, cis-3-(3-((4-fluoro-2,2-dioxido-1-(2,2,2-trifluoroethyl)-1,3-dihydrobenzo[c]isothiazol-5-yl)amino)-1H-pyrazol-5-yl)cyclopentyl(1-methylcyclopropyl)carbamate] |
| 412 nM | 3.5 nM | CC(NC(=O)O[C@H]1CC[C@@H](c2cc(Nc3cc4c(cc3F)S(=O)(=O)NC4)n[nH]2)C1)C1CC1 (relative stereo) [Example 413, cis-3-(3-((6-fluoro-1,1-dioxido-2,3-dihydrobenzo[d]isothiazol-5-yl)amino)-1H-pyrazol-5-yl)cyclopentyl(1-cyclopropylethyl)carbamate] |
| 116 nM | 12 nM | [2H]C([2H])([2H])N1c2c(F)cc(Nc3cc([C@@H]4CC[C@H](OC(=O)NC(C)C)C4)[nH]n3)cc2CS1(=O)=O (single isomer, unassigned) [Example 289b, cis-3-(3-((7-fluoro-1-(methyl-d3)-2,2-dioxido-1,3-dihydrobenzo[c]isothiazol-5-yl)amino)-1H-pyrazol-5-yl)cyclopentyl isopropylcarbamate] |
| 556 nM | 8.9 nM | CC(=O)N1CCC(N2Cc3c(ccc(Nc4cc([C@@H]5CC[C@H](OC(=O)NC(C)C)C5)[nH]n4)c3F)S2(=O)=O)CC1 (relative stereo) [Example 78, cis-3-(3-((2-(1-acetylpiperidin-4-yl)-4-fluoro-1,1-dioxido-2,3-dihydrobenzo[d]isothiazol-5-yl)amino)-1H-pyrazol-5-yl)cyclopentyl isopropylcarbamate] |
| 49 nM | 1.8 nM | CC(C)NC(=O)O[C@H]1CC[C@@H](c2cc(Nc3ccc4c(c3F)CS(=O)(=O)N4CCO)n[nH]2)C1 (single isomer, unassigned) [Example 271b, cis-3-(3-((4-fluoro-1-(2-hydroxyethyl)-2,2-dioxido-1,3-dihydrobenzo[c]isothiazol-5-yl)amino)-1H-pyrazol-5-yl)cyclopentyl isopropylcarbamate] |
| 60 nM | 3.5 nM | CC(C)NC(=O)O[C@H]1CC[C@@H](c2cc(Nc3ccc4c(c3)CS(=O)(=O)N4CCN3CCOCC3)n[nH]2)C1 (relative stereo) [Example 212, cis-3-(3-((1-(2-morpholinoethyl)-2,2-dioxido-1,3-dihydrobenzo[c]isothiazol-5-yl)amino)-1H-pyrazol-5-yl)cyclopentyl isopropylcarbamate] |
| 133 nM | 2.9 nM | CC(C)NC(=O)O[C@H]1CC[C@@H](c2cc(Nc3ccc4c(c3F)CS(=O)(=O)N4C)n[nH]2)C1 (single isomer, unassigned) [Example 255a, cis-3-(3-((4-fluoro-1-methyl-2,2-dioxido-1,3-dihydrobenzo[c]isothiazol-5-yl)amino)-1H-pyrazol-5-yl)cyclopentyl isopropylcarbamate] |
